Test systems include SNB-78; M19-MEL; DLD-1; HOP-18; KM-20L2; LXFL 529; DMS-273; XF498; RXF 631.
What all share (test): inhibition of tumour cell growth, NCI panel, 48 h

From ChEMBL document CHEMBL1201862, “PubChem BioAssay data set” (2004) come the findings set out here.

Molecules are shown by their SMILES.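 Interpolation was linear, between the two tested concentrations surrounding the appropriate level; five concentrations were tested over 48 hours in 96-well plates. The concentration for 50% growth inhibition is given as GI50.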 Calls of active or inactive are those of the source. Cut-off read from the data, not from the text of the source: active = GI50 up to about 1.1 µM and inactive = higher.

In the case of `C=CC1(NS(=O)(=O)c2ccc(C)cc2)CCC(C(C)(C)C)CC1` (stereo unspecified), the GI50 in the experiment with SNB-78 was 30.7 µM (inactive); with M19-MEL it was > 100 µM (inactive); in the experiment with DLD-1, > 100 µM (inactive); with HOP-18 it was 37.5 µM (inactive); in the experiment on KM-20L2, > 100 µM (inactive); in the experiment on LXFL 529, 99.5 µM (inactive). Further, in the experiment on DMS-273, the GI50 was 43.5 µM (inactive).

On to `CN(CCCCN)c1ccc2c(=O)[nH][nH]c(=O)c2c1`, for which the GI50 in the experiment with SNB-78 is > 100 µM (inactive); with DLD-1, > 100 µM (inactive); in the experiment on HOP-18, > 100 µM (inactive); with XF498, > 100 µM (inactive); in the experiment with RXF 631, > 10 µM (inactive); with LXFL 529, > 100 µM (inactive). Moreover, the GI50 in the experiment with DMS-273 was > 100 µM (inactive).

For the molecule `COc1ccc(/C=C2\C(=O)N(NC(C)=O)c3ccccc32)cc1`, the GI50 is > 100 µM (inactive) in the experiment with SNB-78; > 100 µM (inactive) in the experiment with M19-MEL; 68.4 µM (inactive) with DLD-1; > 100 µM (inactive) in the experiment with HOP-18; > 100 µM (inactive) with KM-20L2; > 100 µM (inactive) in the experiment on XF498. Moreover, the GI50 in the experiment on RXF 631 was > 100 µM (inactive); in the experiment on DMS-273, 99.1 µM (inactive).

Turning to `Cc1nc(N)sc1C(=O)/C=C\c1ccc2c(c1)OCO2`, the GI50 in the experiment on SNB-78, in the experiment with M19-MEL, in the experiment on DLD-1, with HOP-18, in the experiment with KM-20L2 and with XF498 was > 100 µM (inactive) in each case. For the same molecule, the GI50 in the experiment on RXF 631, in the experiment with LXFL 529 and in the experiment on DMS-273 was > 100 µM (inactive) throughout.

Consider `COc1cc([C@@H]2c3cc4c(cc3C(N)C3COC(=O)[C@@H]32)OCO4)cc(OC)c1O` (stereo partly specified), for which the GI50 in the experiment on M19-MEL was 0.334 µM (active); in the experiment with DLD-1 it was 0.377 µM (active); in the experiment on HOP-18 it was > 100 µM (inactive); with KM-20L2, 0.176 µM (active); in the experiment with RXF 631, 0.178 µM (active); in the experiment on LXFL 529 it was 0.117 µM (active).

`COc1cc(C)c(O)c(C(=O)O)c1`: the GI50 in the experiment on SNB-78, in the experiment on M19-MEL, with DLD-1, in the experiment on HOP-18, in the experiment on KM-20L2 and in the experiment on XF498 was > 100 µM (inactive) each time. The GI50 with LXFL 529 and in the experiment on DMS-273 was > 100 µM (inactive) throughout.

Take `O=c1ccn([C@@H]2C[C@H](CO)C[S+]([O-])C2)c(=O)[nH]1` (stereo partly specified): the GI50 with M19-MEL, in the experiment on DLD-1, with HOP-18, in the experiment with KM-20L2, in the experiment on LXFL 529 and in the experiment on DMS-273 was > 100 µM (inactive) throughout.

As to `CC(C)(c1ccccc1)c1ccc(OC#N)cc1`, the GI50 in the experiment on SNB-78 is > 100 µM (inactive); in the experiment with M19-MEL, > 60.1 µM (inactive); in the experiment on DLD-1 it was > 44.5 µM (inactive); with HOP-18, > 100 µM (inactive); in the experiment on KM-20L2, > 60.3 µM (inactive); in the experiment with XF498 it was 44.6 µM (inactive). Also, the GI50 with LXFL 529 is > 78.3 µM (inactive); in the experiment on DMS-273, 17 µM (inactive).

As for `O=C1c2ccccc2C(=O)c2c1cc(S(=O)(=O)O)c(O)c2O` [Alizarin Red S], the GI50 in the experiment with SNB-78 was > 100 µM (inactive); with M19-MEL, > 100 µM (inactive); in the experiment with DLD-1, > 100 µM (inactive); in the experiment on XF498, 16.7 µM (inactive); in the experiment on RXF 631, > 100 µM (inactive); in the experiment on LXFL 529, > 100 µM (inactive).

Regarding `C=C[C@@]1(O)CCCC2=C(C(=O)OCC)CC[C@]21C`, the GI50 in the experiment on M19-MEL was > 100 µM (inactive); in the experiment with DLD-1, > 100 µM (inactive); with HOP-18 it was 99.8 µM (inactive); in the experiment with LXFL 529, > 100 µM (inactive); in the experiment on DMS-273, 37.5 µM (inactive).

`C[C@]1(CO)CCC[C@@]2(C)C1CC[C@H]1CC3C[C@]12CC[C@]3(C)O` (stereo partly specified): the GI50 was 27.1 µM (inactive) in the experiment with SNB-78; 32.4 µM (inactive) with DLD-1; > 100 µM (inactive) in the experiment with KM-20L2; 47.1 µM (inactive) with XF498; 42.3 µM (inactive) in the experiment on RXF 631; 2.86 µM (inactive) in the experiment on LXFL 529. Also, in the experiment with DMS-273, the GI50 was > 100 µM (inactive).

On to `COc1cc2c[n+](C)c3c4cc(OC)c(OC)cc4c(OCCCCCCCCOc4cc5c6cc(OC)c(OC)cc6c[n+](C)c5c5cc(OC)c(OC)cc45)cc3c2cc1OC`, for which the GI50 was > 100 µM (inactive) in the experiment on SNB-78; 53.1 µM (inactive) in the experiment on M19-MEL; > 100 µM (inactive) in the experiment on DLD-1; > 100 µM (inactive) in the experiment on HOP-18; 80 µM (inactive) in the experiment on KM-20L2; > 100 µM (inactive) in the experiment on XF498. The GI50 in the experiment on LXFL 529 was > 100 µM (inactive); with DMS-273, 20 µM (inactive).

On to `COc1cc2c(cc1O)[C@@]1(Cc3ccc(OC)c(OC)c3)CCC(=O)N1CC2`, for which the GI50 in the experiment with SNB-78 was > 100 µM (inactive); in the experiment with M19-MEL, > 100 µM (inactive); in the experiment on DLD-1, > 100 µM (inactive); with HOP-18, 31.3 µM (inactive); with KM-20L2, > 100 µM (inactive); with LXFL 529, > 100 µM (inactive). The GI50 with DMS-273 is > 100 µM (inactive).

Take `CC1(C)C(c2ccccc2)=NN(O)c2ccccc21`: the GI50 in the experiment on SNB-78, with M19-MEL, in the experiment with DLD-1, with HOP-18, in the experiment with KM-20L2 and in the experiment on LXFL 529 was > 100 µM (inactive) in each case. Also, the GI50 with DMS-273 was > 100 µM (inactive).

For `COC(=O)C(C#N)=C1c2ccccc2Oc2ccccc21`, the GI50 is 28.6 µM (inactive) with SNB-78; 60.1 µM (inactive) with M19-MEL; > 100 µM (inactive) with DLD-1; 91.2 µM (inactive) in the experiment on KM-20L2; > 100 µM (inactive) in the experiment with XF498; 29.8 µM (inactive) in the experiment on LXFL 529. Also, in the experiment on DMS-273, the GI50 was > 100 µM (inactive).

As for `NC(CCCNc1cccc(O)c1)C(=O)O` (stereo unspecified), the GI50 with SNB-78, with M19-MEL, in the experiment with DLD-1, with HOP-18, with KM-20L2 and in the experiment on LXFL 529 was > 100 µM (inactive) throughout. In the experiment with DMS-273, the GI50 is > 100 µM (inactive).

For `NC(=O)CC(N/C=C1/N=C(c2ccccc2)OC1=O)C(=O)O` (stereo unspecified), the GI50 in the experiment on SNB-78, in the experiment on M19-MEL, with DLD-1, in the experiment on HOP-18, in the experiment with KM-20L2 and with RXF 631 was > 100 µM (inactive) throughout. In addition, the GI50 in the experiment on LXFL 529 and in the experiment on DMS-273 was > 100 µM (inactive) in each case.

As to `CC1CCN(CCC(=O)CC(c2ccccc2)c2c(O)c3ccccc3oc2=O)CC1` (stereo unspecified), the GI50 in the experiment on SNB-78 was 34.4 µM (inactive); in the experiment on M19-MEL it was > 100 µM (inactive); in the experiment on DLD-1 it was > 100 µM (inactive); in the experiment with KM-20L2, > 100 µM (inactive); in the experiment with XF498 it was > 100 µM (inactive); with RXF 631 it was > 100 µM (inactive). Also, in the experiment with DMS-273, the GI50 is > 100 µM (inactive).

With `Cc1cc(C)c(C2[C@H]3C(=O)N(c4ccc(Cc5ccc(N6C(=O)[C@@H]7ON(c8ccccc8)C(c8c(C)cc(C)cc8C)[C@@H]7C6=O)cc5)cc4)C(=O)[C@H]3ON2c2ccccc2)c(C)c1` (stereo partly specified), the GI50 in the experiment on SNB-78, with M19-MEL, in the experiment on DLD-1, in the experiment on HOP-18, in the experiment on KM-20L2 and in the experiment on RXF 631 was > 100 µM (inactive) in each case. Further, the GI50 with LXFL 529 and in the experiment with DMS-273 was > 100 µM (inactive) throughout.

With `O=C1CCCN(c2ccccc2)N1`, the GI50 with M19-MEL, in the experiment with KM-20L2, with RXF 631, in the experiment with LXFL 529 and with DMS-273 was > 100 µM (inactive) throughout.

`CC(C)Cc1cc(CCC(=O)Nc2ccccc2[N+](=O)[O-])nc(NC#N)n1`: the GI50 in the experiment on M19-MEL, with DLD-1, in the experiment on HOP-18, with KM-20L2, in the experiment with XF498 and with LXFL 529 was > 100 µM (inactive) in each case.

`COc1cccc2c1C(=O)c1c(O)c3c(c(O)c1C2=O)C[C@@](O)(C(C)=O)C[C@@H]3OC1CC([N+]([O-])(Cc2ccccc2)Cc2ccccc2)C(O)C(C)O1` (stereo partly specified): the GI50 in the experiment on M19-MEL was 1.43 µM (inactive); with DLD-1 it was 1.29 µM (inactive); with HOP-18, 1.58 µM (inactive); in the experiment with KM-20L2 it was 1.55 µM (inactive); in the experiment with XF498, 1.23 µM (inactive); in the experiment on RXF 631 it was 0.428 µM (active). In addition, the GI50 in the experiment with LXFL 529 was 1.11 µM (active).

Consider `Cc1ccc(/C=C/C(=O)CCN(C)C)cc1`, for which the GI50 with SNB-78 was 28.6 µM (inactive); in the experiment with M19-MEL it was 19.7 µM (inactive); in the experiment on DLD-1 it was 18.1 µM (inactive); with HOP-18, 20.7 µM (inactive); with KM-20L2 it was 18.3 µM (inactive); with XF498, 14.2 µM (inactive). In addition, the figures for the GI50 in the experiment on LXFL 529 and in the experiment on DMS-273 were 19.4 µM (inactive) and 13 µM (inactive), respectively.

Take `CN1N=C2NCCNC3=NN(C)/C(=N/CC/N=C/1S2)S3`: the GI50 with SNB-78, with M19-MEL, in the experiment with DLD-1, in the experiment on HOP-18, in the experiment on KM-20L2 and in the experiment with LXFL 529 was > 100 µM (inactive) throughout. The GI50 in the experiment on DMS-273 was > 100 µM (inactive).

`CCOC(=O)Oc1c(OC)cc(C(=O)NC2CCc3cc(OC)c(OC)c(OC)c3-c3ccc(SC)c(=O)cc32)cc1OC` (stereo unspecified): the GI50 is 0.0489 µM (active) with SNB-78; 0.047 µM (active) in the experiment on M19-MEL; 0.0723 µM (active) in the experiment on DLD-1; 0.0853 µM (active) in the experiment with KM-20L2; 0.0681 µM (active) with XF498; 0.0386 µM (active) in the experiment with LXFL 529. The GI50 in the experiment with DMS-273 is < 0.007 µM (active).
